Measurements published in patent US20240067651A1 (Biohaven Therapeutics Ltd., priority 2019, published 2024).
Values belong to the compound of their own block, whether it stands above or below them.

Assays:
[1] = Stability in Simulated Intestinal Fluid (SIF); assay type: in vitro ADME; parameters: key: % parent compound remaining relative to 0-minute sample
Procedure: (§1) Simulated gastric fluid (SGF) and Simulated intestinal fluid (SIF) stability are in vitro metrics indicating the ability of a compound to pass through the gastrointestinal tract […] or completely digested. An undigested or nearly undigested compound will usually survive gut transit long enough to be absorbed into the systemic circulation. Greater than 50% remaining intact compound at 1 hour indicates a relatively stable molecule that will likely be absorbed in the gut.
(§2) For each test compound, samples at a final concentration of 2 μg/mL are prepared in respective blank simulated gastric fluid with pepsin (pH 1.2) and simulated intestinal fluid with pancreatin (pH 6.8). All samples are incubated at 37° C. on a 150-rpm orbital shaker, and an aliquot is removed at predetermined time points (0 to 60 minutes). Samples are precipitated with three volumes of acetonitrile containing propranolol as internal standard, and centrifuged for 10 min at 2,000 g before LC-MS/MS analysis of the supernatant solutions. Percent parent compound remaining is determined relative to 0-minute incubation samples. If a sufficient number of time points are available, the degradation half-life is calculated based on the natural log of % compound remaining vs. time plot.

Plasma Stability = assay type: in vitro ADME, human
Procedure: Plasma stability estimates the ability of a compound to remain intact in the blood. For prodrugs that are intended to be hydrolyzed by plasma enzymes a certain level of instability in plasma indicates the compound is probably breaking down to the parent drug. A stability range of 25-75% remaining parent compound after 1 hour in plasma indicates the compound is likely breaking down to the parent drug molecule and a patient will be exposed to this parent molecule.
Assessment of plasma stability was carried out by individual incubations of drug candidates in fresh human plasma at a concentration of 1 μM for 1 hour at 37° C. After which, the samples were de-proteinized by addition of 2 volumes of acetonitrile containing 0.1% formic acid and internal standard, vortex mixed for 2 minutes and centrifuged at 4,000 rpm for 10 minutes to pellet precipitated protein. The resulting supernatant containing the drug candidates was diluted 5-fold with water containing 0.1% formic acid and submitted to LCMS/MS analysis. All determinations were done in triplicate. Plasma stability was expressed as percent of control remaining.
See Pelletier et al. ACS Med. Chem. Lett. 2018, 9, 752-756.

[2] = Stability in Simulated Gastric Fluid (SGF); assay type: in vitro ADME; parameters: key: % parent compound remaining relative to 0-minute sample
Procedure: as §1, §2

[3] = Caco-2 Permeability Assay; assay type: in vitro ADME, human; conditions: human
Text: The compounds of the invention may be tested for biological activity as MPO inhibitors by methods known to those skilled in the art. In addition, methods such as, for example, a Caco-2 assay, may be used to test the bioavailability of the compounds of the invention. A description of a Caco-2 permeability assay is as follows:
• The Caco-2 monolayer is widely used across the pharmaceutical industry as an in vitro model of the human small intestinal mucosa to predict the absorption of orally administered drugs.^1-4 • The Caco-2 cell model mimics processes such as transcellular transport, paracellular transport, and some aspects of efflux and active transport. • Readout: Papp (A→B), Papp (B→A), Efflux ratio, % Recovery • Controls: with and without Pgp inhibitor; Atenolol, Propanolol, Taxel-1
The Caco-2 cells are cultured to confluency, trypsinized and seeded onto a filter transwell insert at a density of ^˜32,000 cells/well in DMEM cell culture medium. Cells are grown in a humidified atmosphere of 5% CO2 at 37° C. Following an overnight attachment period (24 h after seeding), the cell medium is replaced with fresh medium in both the apical and basolateral compartments every other day. The cell monolayers are used for transport studies 21 days post seeding after measuring the TEER values ([…]). The apical sides and basolateral sides are washed consecutively with HBSS 2.5% (v/v), HEPES (pH 7.4) or HBSS 2.5% (v/v), HEPES 10% (v/v), and Fetal Bovine Serum (pH 7.4) at 37° C. in an incubator under an atmosphere of 5% CO2.
Donor working solution is prepared by dilution of DMSO stock of test article or positive control with transport media to 10 μM.
For A→B directional transport, the donor working solution (with test article or positive control, with or without Pgp inhibitor) is added to the apical (A) compartment and the transport media as receiver working solution is added to the basolateral (B) compartment. For B→A directional transport, the donor working solution (with positive control or test article, with or without Pgp inhibitor) is added to the basolateral (B) compartment and transport media as receiver working solution is added to the apical (A) compartment.
The cells are incubated in a humidified atmosphere of 5% CO2 at 37° C. for 90 minutes.
At the end of the incubation, samples are taken from both donor and receiver compartments and transferred into 96-well assay plates containing internal standard solution (IS) in each well. After centrifugation, the supernatant solutions are transferred to clean 96 well plates and analyzed by LC-MS/MS. The MS detection is performed using a Sciex API 4000 instrument. Each compound is analyzed by reversed phase HPLC.
The parameters Papp (apparent permeability) and efflux ratio are calculated as follows:
Papp=(dQ/dt)×(1/C0)×(1/A)
Efflux ratio=Papp[B→A]/Papp[A→B]
where dQ/dt is the permeability rate, C0 is the initial concentration in the donor compartment, and A is the surface area of the cell monolayer (0.33 cm^2). The Papp value is a rate measured in cm/s. Calculated Papp is ranked as low (<[…]), moderate (1-10×10^−6 cm/s), and high (>[…]).
Comparing the efflux ratios generated in the presence and absence of a Pgp inhibitor identifies whether the test article is a Pgp substrate.
Recovery is calculated as follows:
% Recovery=(Total compound mass in donor and receiver compartments at the end of the incubation/Initial compound mass in the donor compartment)×100.

[4] = Caco-2, pH 7.4, Caco-2 monolayer
[5] = bare number, unit or time not given
[6] = % remaining at 1 h in simulated intestinal fluid
[7] = % remaining at 1 h in human plasma
[8] = % remaining at 1 h in simulated gastric fluid
[9] = simulated intestinal fluid, remaining at 1 h
[10] = simulated gastric fluid, remaining at 1 h
[11] = bare number, no % and no time given

SIF ([1]; simulated intestinal fluid, at 1 h): 99% remaining
human Plasma stability (Plasma Stability; human plasma, at 1 h): 99% remaining
SGF ([2]; simulated gastric fluid, at 1 h): 98% remaining
Papp at 90 min, 10 µM [3, 4]: 21.7 ×10⁻⁶ cm/s
Structure (SMILES): Cc1cccc(N(C)C(=O)OCSc2nc(=O)c3c(ccn3COC(=O)N(C)c3cccc(C)c3)n2CCOC(C)C)c1 [Example 246]

Structure (SMILES): CC(C)OCCn1c(=S)[nH]c(=O)c2c1ccn2COC(=O)CCCCOC(=O)[C@H](Cc1ccccc1)NC(=O)OC(C)(C)C [Example 334, {4-oxo-1-[2-(propan-2-yloxy)ethyl]-2-sulfanylidene-1H,2H,3H,4H,5H-pyrrolo[3,2-d]pyrimidin-5-yl}methyl 5-{[(2S)-2-{[(tert-butoxy)carbonyl]amino}-3-phenylpropanoyl]oxy}pentanoate]
SIF [1, 5]: 2
human Plasma stability (Plasma Stability; % remaining @ 1 h): 58% remaining
SGF [2, 5]: 90
Papp at 90 min, 10 µM ([3]; Caco-2, pH 7.4): 6.26 ×10⁻⁶ cm/s

Structure (SMILES): CC(C)OCCn1c(=S)[nH]c(=O)c2c1ccn2COC(=O)[C@@H](N)Cc1ccccc1.O=C(O)C(F)(F)F [Example 308, trifluoroacetic acid {4-oxo-1-[2-(propan-2-yloxy)ethyl]-2-sulfanylidene-1H,2H,3H,4H,5H-pyrrolo[3,2-d]pyrimidin-5-yl}methyl (2S)-2-amino-3-phenylpropanoate]
SIF ([1]; % remaining @ 1 h): 44% @ 1 h
human Plasma stability (Plasma Stability; % remaining @ 1 h): 2.5% @ 1 h
SGF ([2]; % remaining @ 1 h): 97% @ 1 h
Papp at 90 min, 10 µM ([3]; Caco-2, pH 7.4): < 0.364 ×10⁻⁶ cm/s

SIF [1, 6]: 67% remaining
human Plasma stability (Plasma Stability; [7]): 2% remaining
SGF [2, 8]: 100%
Papp at 90 min, 10 µM [3, 4]: 13.5 ×10⁻⁶ cm/s
Structure (SMILES): CC(C)OCCn1c(=S)[nH]c(=O)c2c1ccn2COC(=O)CCC(=O)OC(C)(C)C [Example 126]

SIF ([1]; % remaining at 1 h in simulated intestinal fluid, the 15th table): 97% @ 1 h
human Plasma stability (Plasma Stability; % remaining at 1 h in human plasma, the 15th table): 96% @ 1 h
SGF ([2]; % remaining at 1 h in simulated gastric fluid, the 15th table): 97% @ 1 h
Papp at 90 min, 10 µM ([3]; Caco-2, pH 7.4, Caco-2 monolayer, the 15th table): 33.1 ×10⁻⁶ cm/s
Structure (SMILES): CC(C)CNC(=O)OCSc1nc(=O)c2c(ccn2C(=O)NCC(C)C)n1CCOC(C)C [Example 187]

Structure (SMILES): CC(C)OCCn1c(=S)[nH]c(=O)c2c1ccn2COC(=O)CCCOC(=O)[C@H](N)Cc1ccccc1.O=C(O)C(F)(F)F [Example 362, trifluoroacetic acid {4-oxo-1-[2-(propan-2-yloxy)ethyl]-2-sulfanylidene-1H,2H,3H,4H,5H-pyrrolo[3,2-d]pyrimidin-5-yl}methyl 4-{[(2R)-2-amino-3-phenylpropanoyl]oxy}butanoate]
SIF [1, 9]: 2% remaining
human Plasma stability (Plasma Stability; human plasma, remaining at 1 h): 3% remaining
SGF [2, 10]: 90% remaining
Papp at 90 min, 10 µM [3, 4]: 5.12 ×10⁻⁶ cm/s

Structure (SMILES): CC(C)OCCn1c(SCOC(=O)N(C)Cc2ccccc2)nc(=O)c2[nH]ccc21.O=C(O)C(F)(F)F [Example 173]
SIF ([1]; % @ 1 h (remaining) in simulated intestinal fluid): 99% @ 1 h
human Plasma stability (Plasma Stability; % @ 1 h (remaining) in human plasma): 99% @ 1 h
SGF ([2]; % @ 1 h (remaining) in simulated gastric fluid): 95% @ 1 h
Papp at 90 min, 10 µM [3, 4]: 20.5 ×10⁻⁶ cm/s

Structure (SMILES): CC(C)C[C@@H](N)C(=O)OCCCCC(=O)OCn1ccc2c1c(=O)[nH]c(=S)n2CCOC(C)C.O=C(O)C(F)(F)F [Example 350, trifluoroacetic acid 5-oxo-5-({4-oxo-1-[2-(propan-2-yloxy)ethyl]-2-sulfanylidene-1H, 2H,3H,4H,5H-pyrrolo[3,2-d]pyrimidin-5-yl}methoxy)pentyl (2R)-2-amino-4-methylpentanoate]
SIF [1, 9]: 52% remaining
human Plasma stability (Plasma Stability; human plasma, remaining at 1 h): 44% remaining
SGF [2, 10]: 29% remaining
Papp at 90 min, 10 µM [3, 4]: 0.0782 ×10⁻⁶ cm/s

SIF [1, 11]: 96
human Plasma stability (Plasma Stability; % remaining at 1 h, human plasma, 1 μM, 37° C.): 99% remaining
SGF [2, 11]: 98
Papp at 90 min, 10 µM ([3]; Caco-2, pH 7.4, donor 10 μM, 90 minutes, 37° C., direction not given): 30.8 ×10⁻⁶ cm/s
Structure (SMILES): CC(C)OCCn1c(SCOC(=O)N(CC(F)(F)F)CC(F)(F)F)nc(=O)c2c1ccn2COC(=O)N(CC(F)(F)F)CC(F)(F)F [Example 97, {2-[{{[bis(2,2,2-trifluoroethyl)carbamoyl]oxy}methyl)sulfanyl]-4-oxo-1-[2-(propan-2-yloxy)ethyl]-1H,4H,5H-pyrrolo[3,2-d]pyrimidin-5-yl}methyl N,N-bis(2,2,2-trifluoroethyl)carbamate]

SIF [1, 6]: 75% remaining
human Plasma stability (Plasma Stability; [7]): 62% remaining
SGF [2, 8]: 99% remaining
Papp at 90 min, 10 µM [3, 4]: 6.7 ×10⁻⁶ cm/s
Structure (SMILES): CSCC[C@H](NC(=O)OC(C)(C)C)C(=O)NCCCCC(=O)OCn1ccc2c1c(=O)[nH]c(=S)n2CCOC(C)C [Example 28]

Structure (SMILES): CC(C)C[C@H](N)C(=O)OCn1ccc2c1c(=O)n(CO)c(=S)n2CCOC(C)C.O=C(O)C(F)(F)F [Example 323, trifluoroacetic acid [3-(hydroxymethyl)-4-oxo-1-[2-(propan-2-yloxy)ethyl]-2-sulfanylidene-1H,2H,3H,4H,5H-pyrrolo[3,2-d]pyrimidin-5-yl]methyl (2S)-2-amino-4-methylpentanoate]
SIF ([1]; % remaining @ 1 h): 52%@ 1 h
human Plasma stability (Plasma Stability; % remaining @ 1 h): 12%@ 1 h
SGF ([2]; % remaining @ 1 h): 95%@ 1 h
Papp at 90 min, 10 µM ([3]; Caco-2, pH 7.4): < 0.355 ×10⁻⁶ cm/s

Structure (SMILES): CC(C)C[C@@H](NC(=O)OC(C)(C)C)C(=O)OCCCCC(=O)OCn1ccc2c1c(=O)[nH]c(=S)n2CCOC(C)C [Example 347, 5-oxo-5-({4-oxo-1-[2-(propan-2-yloxy)ethyl]-2-sulfanylidene-1H,2H,3H,4H,5H-pyrrolo[3,2-d]pyrimidin-5-yl}methoxy)pentyl (2R)-2-{[(tert-butoxy)carbonyl]amino}-4-methylpentanoate]
SIF ([1]; % remaining @ 1 h): 4% remaining
human Plasma stability (Plasma Stability; % remaining @ 1 h): 16% remaining
SGF ([2]; % remaining @ 1 h): 98% remaining
Papp at 90 min, 10 µM ([3]; Caco-2, pH 7.4): 1.06 ×10⁻⁶ cm/s

SIF [1, 6]: 22% remaining
human Plasma stability (Plasma Stability; [7]): 50% remaining
SGF [2, 8]: 85% remaining
Papp at 90 min, 10 µM [3, 4]: 19.3 ×10⁻⁶ cm/s
Structure (SMILES): CC(C)OCCn1c(=S)n(COC(=O)OCCOCCNC(=O)OC(C)(C)C)c(=O)c2c1ccn2COC(=O)OCCOCCNC(=O)OC(C)(C)C [Example 122]

Papp at 90 min, 10 µM [3, 4]: 5.11 ×10⁻⁶ cm/s
Structure (SMILES): CC(C)OCCn1c(SCOC(=O)C(C)(C)C)nc(=O)c2c1ccn2COC(=O)C(C)(C)C [Example 144]

Structure (SMILES): CC(C)OCCn1c(SCOC(=O)c2ccccc2)nc(=O)c2c1ccn2COC(=O)c1ccccc1.O=C(O)C(F)(F)F [Example 158]
Papp at 90 min, 10 µM [3, 4]: 5.37 ×10⁻⁶ cm/s
